Data: patent US20240368221A1, “IMPATIENS BALSAMINA-DERIVED ANTI-BACTERIAL PEPTIDE AND ANTI-BACTERIAL COMPOSITION CONTAINING SAME” (V&CO CO., LTD., priority 2021, published 2024)
Converted amounts (≈) assume the structure as drawn. Like-named read-outs stand apart in the source and are kept apart here. Where a SMILES comes first, the peptide text is derived from it.

Assays:
[1] = system: Aspergillus niger KCTC 6317; type: cell-based
Method: (§1) To examine the antimicrobial and antifungal activity of the six types of peptide derivatives prepared in Example 1, antimicrobial and antifungal activity was analyzed using three types of bacterial strains and two types of fungal strains.
(§2) Specifically, to analyze antimicrobial and antifungal activity, a minimal inhibitory concentration (MIC) was measured. The three types of bacterial strains included Escherichia coli KCCM 41290, Staphylococcus aureus KCTC 1621, and Cutibacterium acnes KCTC 3314, and the two types of fungal strains included Candida albicans KCTC 17712, and Aspergillus niger KCTC 6317. The culture of Escherichia coli and Staphylococcus aureus was performed in Luria-Bertani (LB) medium (BD Difco), and the culture of Cutibacterium acnes was performed in reinforced clostridial medium (RCM, BD Difco). The culture of Candida albicans and Aspergillus niger was performed in potato dextrose (PD) medium (BD Difco). The pre-cultured microorganisms or spores were diluted in a medium to 5×10^3 CFU/mL, and each of the six types of peptide derivatives prepared in Example 1 was added at a predetermined concentration. Afterward, a bacterial strain was cultured at 37° C., a fungal strain was cultured at 25° C. for 18 to 24 hours, and optical densities (OD600) were measured using a microplate reader. Fluorescence values (Ex560 and Em600), instead of optical densities, were measured after adding a resazurin reagent to the Aspergillus niger medium to have a concentration of 100 μM. As a control, Ib-AMP4 was used, and the analysis results were expressed as the average of three repeated experiments.

[2] = system: Candida albicans KCTC 17712; type: cell-based
Method: as §1, §2

[3] = system: Cutibacterium acnes KCTC 3314; type: cell-based
Method: as §1, §2

[4] = system: Escherichia coli KCCM 41290; type: cell-based
Method: as §1, §2

[5] = system: Staphylococcus aureus KCTC 1621; type: cell-based
Method: as §1, §2

[6] = Cytotoxicity, WST-1 cell viability; type: cell-based, murine; conditions: mouse, L929 cells (murine fibroblast cell line)
Method: (§3) Specifically, cytotoxicity was evaluated using a skin cell line, L929 cells (murine fibroblast cell line). In addition, as comparative groups, Ib-AMP4 and the bee venom-derived AMP, melittin, known to be highly cytotoxic, were used. The L929 cells were cultured in RPMI 1640 medium (Gibco), which was supplemented with 10% FBS (Sigma), antibiotic-antimycotic cocktail, penicillin G (100 IU/mL), streptomycin (100 μg/mL), and amphotericin B (250 ng/ml; Gibco), at 37° C. in 5% CO2. The cells were seeded in a 96-well plate at 1×10^4 cell/well, incubated for 18 hours, treated with each peptide at 1.25 to 160 µg/mL, and then incubated for 24 hours. 10 μL of WST-1 reagent was added to 100 μL of the medium and allowed to react at 37° C. for 30 minutes, and then absorbance (A450) was measured at 450 nm using a microplate reader. Instead of the peptides, 0.1% Triton X-100 and PBS were used as positive and negative controls, respectively, and cell viability was calculated based on the following equation: % Cell viability=[(A450 in peptide solution−A450 in PBS)/(A450 in 0.1% Triton X−100-A450 in PBS)]×100. The analysis results were expressed as mean±S.D of three repeated experiments.

[7] = system: L929 cells (murine fibroblast cell line); test: Cytotoxicity, WST-1 cell viability; type: cell-based
Method: as §3

[8] = system: sheep red blood cells (sRBCs); test: Hemolytic activity; type: cell-based; conditions: for Hemolytic Activity (%): 5% sRBC, 30 minutes, room temperature
Method: Specifically, hemolytic activity was analyzed using sheep red blood cells (sRBCs). In addition, as comparative groups, Ib-AMP4 and melittin were used. Defibrinated sheep blood (MB cells) was centrifuged (4,000×g, 10 min, 4° C.), washed with PBS three times, and suspended in PBS, thereby preparing an sRBC solution (10% sRBC). 5% sRBC and each peptide were mixed to have a final concentration of 1.25 to 160 μg/mL, allowed to react at room temperature for 30 minutes, and centrifuged to collect a supernatant. The absorbance (A414) of hemoglobin eluted from the red blood cells in the collected supernatant was measured at 414 nm. 0.1% Triton X−100 was used as a positive control, PBS was used as a negative control, and hemolytic activity (% Hemolysis) was calculated based on the following equation: % Hemolysis=[(A414 in peptide solution−A414 in PBS)/(A414 in 0.1% Triton X−100−A414 in PBS)]×100.

[9] = Escherichia coli, LB medium, 37° C., 18 to 24 hours, OD600
[10] = Aspergillus niger, PD medium, 25° C., 18 to 24 hours, resazurin fluorescence
[11] = Candida albicans, PD medium, 25° C., 18 to 24 hours, OD600
[12] = Cutibacterium acnes, RCM, 37° C., 18 to 24 hours, OD600
[13] = Staphylococcus aureus, LB medium, 37° C., 18 to 24 hours, OD600

N=C(N)NCCC[C@H](NC(=O)CNC(=O)[C@H](Cc1c[nH]c2ccccc12)NC(=O)[C@H](CCC(=O)O)NC(=O)[C@@H](N)CC(=O)O)C(=O)N[C@@H](CCCNC(=N)N)C(=O)N[C@@H](CS)C(=O)N[C@@H](CS)C(=O)NCC(N)=O [VESCA-NH2] (H-DEWGRRCCG-NH2; N-terminus assumed)
MIC ([1]; KCTC 6317): >100 µg/mL
MIC ([2]; KCTC 17712): >100 µg/mL
MIC ([3]; KCTC 3314): >100 µg/mL
MIC ([4]; KCCM 41290): >100 µg/mL
MIC ([5]; KCTC 1621): >100 µg/mL

CC[C@H](C)[C@H](NC(=O)[C@H](Cc1ccccc1)NC(=O)[C@H](CCCCN)NC(=O)[C@H](CCSC)NC(=O)[C@H](CCCCN)NC(=O)[C@H](CCCNC(=N)N)NC(=O)[C@H](CCCNC(=N)N)NC(=O)[C@@H](NC(=O)[C@H](Cc1c[nH]c2ccccc12)NC(=O)[C@@H](N)CCC(=O)O)C(C)C)C(=O)N[C@@H](CC(N)=O)C(=O)N[C@@H](CO)C(=O)N[C@@H](CC(C)C)C(=O)N[C@@H](Cc1ccc(O)cc1)C(=O)N[C@@H](CO)C(=O)N[C@@H](Cc1c[nH]c2ccccc12)C(N)=O [VESCA-OH3] (H-EWVRRKMKFINSLYSW-NH2; N-terminus assumed)
MIC ([1]; KCTC 6317): 80 µg/mL (≈ 37.3 µM)
MIC ([2]; KCTC 17712): 100 µg/mL (≈ 46.7 µM)
MIC ([3]; KCTC 3314): >100 µg/mL
MIC [4, 9]: 40 µg/mL (≈ 18.7 µM)
MIC ([5]; KCTC 1621): 5 µg/mL (≈ 2.33 µM)
antimicrobial activity (MIC) ([5]; Staphylococcus aureus, text of b72): 5 µg/mL

N=C(N)NCCC[C@H](NC(=O)[C@H](CCCNC(=N)N)NC(=O)[C@H](Cc1c[nH]c2ccccc12)NC(=O)[C@H](Cc1ccc(O)cc1)NC(=O)[C@H](CCCNC(=N)N)NC(=O)[C@H](CCCNC(=N)N)NC(=O)[C@H](Cc1c[nH]c2ccccc12)NC(=O)[C@@H]1CCCN1C(=O)CN)C(N)=O [VESCA3] (H-GPWRRYWRR-NH2)
MIC ([1]; KCTC 6317): 40 µg/mL (≈ 30 µM)
MIC ([2]; KCTC 17712): 20 µg/mL (≈ 15 µM)
MIC ([3]; KCTC 3314): >100 µg/mL
MIC ([4]; KCCM 41290): 60 µg/mL (≈ 45.1 µM)
MIC ([5]; KCTC 1621): 5 µg/mL (≈ 3.75 µM)
viability at 24 h, 1.25 µg/mL [6]: 96.7%
viability at 24 h, 2.5 µg/mL [6]: 104%
viability at 24 h, 5 µg/mL [6]: 104%
viability at 24 h, 10 µg/mL [6]: 97.1%
viability at 24 h, 20 µg/mL [6]: 99.7%
viability at 24 h, 40 µg/mL [6]: 91.9%
viability at 24 h, 80 µg/mL [6]: 91.6%
viability at 24 h, 160 µg/mL [6]: 94.9%
viability at 24 h, 160 g/mL [6]: ≥ 90%
cytotoxic activity (in words) [7]: insignificant cytotoxic and hemolytic activity
hemolytic activity (in words) [8]: insignificant cytotoxic and hemolytic activity

N=C(N)NCCC[C@H](NC(=O)[C@H](CCCNC(=N)N)NC(=O)[C@H](CS)NC(=O)[C@H](Cc1ccc(O)cc1)NC(=O)[C@H](CCCNC(=N)N)NC(=O)[C@H](CCCNC(=N)N)NC(=O)CNC(=O)[C@@H]1CCCN1C(=O)CN)C(N)=O [VESCA1] (H-GPGRRYCRR-NH2; N-terminus assumed)
MIC [1, 10]: 60 µg/mL (≈ 53.6 µM)
MIC [2, 11]: 40 µg/mL (≈ 35.7 µM)
MIC [3, 12]: >100 µg/mL
MIC [4, 9]: >100 µg/mL
MIC [5, 13]: >100 µg/mL

N=C(N)NCCC[C@H](NC(=O)[C@H](CCCNC(=N)N)NC(=O)[C@H](CCCCN)NC(=O)[C@H](Cc1c[nH]c2ccccc12)NC(=O)[C@H](CCC(=O)O)NC(=O)[C@@H](N)Cc1ccc(O)cc1)C(=O)N[C@@H](CS)C(=O)N[C@@H](CS)C(=O)N[C@@H](CCCCN)C(N)=O [VESCA-NH4] (H-YEWKRRCCK-NH2; N-terminus assumed)
MIC ([1]; KCTC 6317): >100 µg/mL
MIC ([2]; KCTC 17712): 100 µg/mL (≈ 78.7 µM)
MIC ([3]; KCTC 3314): >100 µg/mL
MIC ([4]; KCCM 41290): >100 µg/mL
MIC ([5]; KCTC 1621): >100 µg/mL

CC[C@H](C)[C@H](NC(=O)CN)C(=O)NCC(=O)N[C@@H](C)C(=O)N[C@H](C(=O)N[C@@H](CC(C)C)C(=O)N[C@@H](CCCCN)C(=O)N[C@H](C(=O)N[C@@H](CC(C)C)C(=O)N[C@H](C(=O)N[C@H](C(=O)NCC(=O)N[C@@H](CC(C)C)C(=O)N1CCC[C@H]1C(=O)N[C@@H](C)C(=O)N[C@@H](CC(C)C)C(=O)N[C@H](C(=O)N[C@@H](CO)C(=O)N[C@@H](Cc1c[nH]c2ccccc12)C(=O)N[C@H](C(=O)N[C@@H](CCCCN)C(=O)N[C@@H](CCCNC(=N)N)C(=O)N[C@@H](CCCCN)C(=O)N[C@@H](CCCNC(=N)N)C(=O)N[C@@H](CCC(N)=O)C(=O)N[C@@H](CCC(N)=O)C(N)=O)[C@@H](C)CC)[C@@H](C)CC)[C@@H](C)O)[C@@H](C)O)C(C)C)C(C)C [Melittin]
viability at 24 h, 1.25 µg/mL ([6]; L929 cells, peptide 1.25 μg/mL, 24 hours, read-out: Relative cell viability (%)): 97.4%
viability at 24 h, 2.5 µg/mL ([6]; L929 cells, peptide 2.5 μg/mL, 24 hours, read-out: Relative cell viability (%)): 51.1%
viability at 24 h, 5 µg/mL ([6]; L929 cells, peptide 5.0 μg/mL, 24 hours, read-out: Relative cell viability (%)): 2.1%
viability at 24 h, 10 µg/mL ([6]; L929 cells, peptide 10 μg/mL, 24 hours, read-out: Relative cell viability (%)): 0.2%
viability at 24 h, 20 µg/mL ([6]; L929 cells, peptide 20 μg/mL, 24 hours, read-out: Relative cell viability (%)): 0.8%
viability at 24 h, 40 µg/mL ([6]; L929 cells, peptide 40 μg/mL, 24 hours, read-out: Relative cell viability (%)): 0.3%
viability at 24 h, 80 µg/mL ([6]; L929 cells, peptide 80 μg/mL, 24 hours, read-out: Relative cell viability (%)): 0.5%
viability at 24 h, 160 µg/mL ([6]; L929 cells, peptide 160 μg/mL, 24 hours, read-out: Relative cell viability (%)): 0.6%
Relative cell viability (%) ([7]; L929 cells, peptide 5.0 μg/mL, 24 hours): 2.1%
Hemolytic Activity (%) ([8]; peptide 1.25 μg/mL): 0.98%
Hemolytic Activity (%) ([8]; peptide 2.5 μg/mL): 3.40%
Hemolytic Activity (%) ([8]; peptide 5.0 μg/mL): 14.0%
Hemolytic Activity (%) ([8]; peptide 10 μg/mL): 25.02%
Hemolytic Activity (%) ([8]; peptide 20 μg/mL): 96.10%
Hemolytic Activity (%) ([8]; peptide 40 μg/mL): 99.36%

C[C@H](NC(=O)[C@H](Cc1ccc(O)cc1)NC(=O)[C@H](CCCNC(=N)N)NC(=O)[C@H](CCCNC(=N)N)NC(=O)CNC(=O)[C@@H]1CCCN1C(=O)CN)C(=O)N[C@@H](CCCNC(=N)N)C(=O)N[C@@H](CCCNC(=N)N)C(N)=O [VESCA2] (H-GPGRRYARR-NH2; N-terminus assumed)
MIC [1, 10]: 80 µg/mL (≈ 73.6 µM)
MIC [2, 11]: 60 µg/mL (≈ 55.2 µM)
MIC [3, 12]: >100 µg/mL
MIC [4, 9]: >100 µg/mL
MIC [5, 13]: >100 µg/mL
